Source: the supplement of paper PMC4862054

How the values were obtained:
Details in all cases: incubation time: 72 h
MFM-223 [1] = experiment: drug sensitivity score (DSS), CellTiter-Glo (DSS (AUC-based score)); higher = stronger drug effect (viability inhibition or cytotoxicity); extreme values may be limits of the assay
Procedure, shortened: (§1)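 After 72 h of incubation in 384-well plates with compound at 5 concentrations (10-fold steps, 10,000-fold range set per compound), breast cancer cell lines seeded in 20 µl suspension were read first for CellTox Green fluorescence at 485/520 nm. CellTiter-Glo luminescence was measured next, after 10 min at room temperature. Normalisation on each plate used 0.1 % DMSO and a positive kill control, and the drug sensitivity score was computed from the area under the fitted dose-response curve.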

MDA-MB-231 [2] = experiment: as above
Procedure, shortened: as §1

HDQ-P1 [3] = experiment: as above
Procedure, shortened: as §1

Hs578T [4] = experiment: as above
Procedure, shortened: as §1

SK-BR-3 = experiment: as above
Procedure, shortened: as §1

BT-549 [5] = experiment: as above
Procedure, shortened: as §1

CAL-85-1 = experiment: as above
Procedure, shortened: as §1

CAL-120 [6] = experiment: as above
Procedure, shortened: as §1

CAL-51 [7] = experiment: as above
Procedure, shortened: as §1

MDA-MB-468 [8] = experiment: as above
Procedure, shortened: as §1

MDA-MB-436 [9] = experiment: as above
Procedure, shortened: as §1

MDA-MB-453 [10] = experiment: as above
Procedure, shortened: as §1

DU-4475 [11] = experiment: as above
Procedure, shortened: as §1

MFM-223 [12] = experiment: drug sensitivity score (DSS), CellTox Green (DSS (AUC-based score)); higher = stronger drug effect (viability inhibition or cytotoxicity); extreme values may be limits of the assay
Procedure, shortened: as §1

MCF-10A = experiment: as above
Procedure, shortened: as §1

HCC1937 = experiment: as above
Procedure, shortened: as §1

MDA-MB-231 [13] = experiment: as above
Procedure, shortened: as §1

HDQ-P1 [14] = experiment: as above
Procedure, shortened: as §1

Hs578T [15] = experiment: as above
Procedure, shortened: as §1

BT-549 [16] = experiment: as above
Procedure, shortened: as §1

CAL-120 [17] = experiment: as above
Procedure, shortened: as §1

CAL-51 [18] = experiment: as above
Procedure, shortened: as §1

MDA-MB-468 [19] = experiment: as above
Procedure, shortened: as §1

MDA-MB-436 [20] = experiment: as above
Procedure, shortened: as §1

HCC1143 = experiment: as above
Procedure, shortened: as §1

MDA-MB-453 [21] = experiment: as above
Procedure, shortened: as §1

DU-4475 [22] = experiment: as above
Procedure, shortened: as §1

Row | SMILES | drug sensitivity score (MFM-223 [1]) | drug sensitivity score (MDA-MB-231 [2]) | drug sensitivity score (HDQ-P1 [3]) | drug sensitivity score (Hs578T [4]) | drug sensitivity score (SK-BR-3) | drug sensitivity score (BT-549 [5]) | drug sensitivity score (CAL-85-1) | drug sensitivity score (CAL-120 [6]) | drug sensitivity score (CAL-51 [7]) | drug sensitivity score (MDA-MB-468 [8]) | drug sensitivity score (MDA-MB-436 [9]) | drug sensitivity score (MDA-MB-453 [10]) | drug sensitivity score (DU-4475 [11]) | drug sensitivity score (MFM-223 [12]) | drug sensitivity score (MCF-10A) | drug sensitivity score (HCC1937) | drug sensitivity score (MDA-MB-231 [13]) | drug sensitivity score (HDQ-P1 [14]) | drug sensitivity score (Hs578T [15]) | drug sensitivity score (BT-549 [16]) | drug sensitivity score (CAL-120 [17]) | drug sensitivity score (CAL-51 [18]) | drug sensitivity score (MDA-MB-468 [19]) | drug sensitivity score (MDA-MB-436 [20]) | drug sensitivity score (HCC1143) | drug sensitivity score (MDA-MB-453 [21]) | drug sensitivity score (DU-4475 [22])
1 | Nc1ncn([C@@H]2O[C@H](CO)[C@@H](O)[C@H]2O)c(=O)n1 [Azacitidine] | 0 | 0 | 2.36 | 0 | 0 | 5.75 | 0 | 0 | 0 | 12.1 | 4.78 | 0 | 0 | 0 | 0 | 0 | 0 | 0 | 0 | 0 | 0 | 0 | 0.523 | 1.61 | 0 | 0 | 0
2 | O=NN(CCCl)C(=O)NCCCl [Carmustine] | 0 | 0 | 0 | 0 | 0 | 0 | 0 | 0 | 0 | 0 | 0 | 0 | 0 | 0 | 0 | 0 | 0 | 0 | 0 | 0 | 0 | 0 | 0 | 0 | 0 | 0 | 0
3 | CC1=C2C[C@H]3[C@@H](CC=C4C[C@@H](O)CC[C@@]43C)[C@@H]2CC[C@]12O[C@@H]1C[C@H](C)CN[C@H]1[C@H]2C [Cyclopamine] | 0 | 0 | 0 | 0 | 0 | 0 | 0 | 0 | 0 | 0 | 0 | 0 | 0 | 0 | 0 | – | 0 | 0 | 0 | 0 | 0 | 0 | 0 | 0 | 2.47 | 0 | 0
4 | CC(=O)N(O)CCCCCNC(=O)CCC(=O)N(O)CCCCCNC(=O)CCC(=O)N(O)CCCCCN [Deferoxamine] | 0 | 0 | 2.75 | 2.31 | 4.14 | 5.68 | 0 | 0 | 3.33 | 7.85 | 4.73 | 0 | 5.21 | 0 | 0 | 0 | 0 | 0 | 0 | 0 | 0 | 4.29 | 0 | 0 | 0 | 0 | 0
5 | CC(=O)O[C@@]12CO[C@@H]1C[C@H](O)[C@@]1(C)C(=O)[C@H](O)C3=C(C)[C@@H](OC(=O)[C@H](O)[C@@H](NC(=O)OC(C)(C)C)c4ccccc4)C[C@@](O)([C@@H](OC(=O)c4ccccc4)[C@H]21)C3(C)C [Docetaxel] | 16.7 | 19.4 | 10.6 | 27.2 | 31.4 | 30.5 | 25.6 | 13.3 | 19.5 | 27.3 | 22 | 14.8 | 15.1 | 10.2 | 19.1 | 1.03 | 31 | 6.92 | 19.2 | 11.4 | 0.904 | 26.2 | 0 | 0 | 5.08 | 0 | 0
6 | C[C@]12CC[C@@H]3c4ccc(OC(=O)N(CCCl)CCCl)cc4CC[C@H]3[C@@H]1CC[C@@H]2O [Estramustine] | 0 | 0 | 0 | 0 | 0 | 0 | 0 | 0 | 2.19 | 0.683 | 0 | 0 | 0 | 0 | 0 | 0 | 0 | – | – | 2.52 | 0 | 6.18 | 3.38 | 0 | 0 | 0 | 0
7 | CC[C@@H]1C(=O)OC[C@@H]1Cc1cncn1C [Pilocarpine] | 0 | 0 | 0 | 0 | 0 | 0 | 0 | 0 | 0 | 0 | 0 | 0 | 0 | 0 | 0 | 0 | 0 | 0 | – | 0 | 0 | 0 | – | 0 | 0 | 0 | 0
